Measurements from the NIST ThermoML archive (doi:10.1016/j.jct.2014.01.020).

Assay: xn = mol fraction of the nth substance listed
Settings: Liquid; for mass density: Vibrating tube method; for viscosity: 101 kPa, Concentric cylinders viscometry

C1CCCCC1 [cyclohexane] + CCCCO
mass density [kg/m3]
Settings | x2 = 0.1 | x2 = 0.2 | x2 = 0.3003 | x2 = 0.4005 | x2 = 0.4997 | x2 = 0.6001 | x2 = 0.6999 | x2 = 0.7998 | x2 = 0.8999
313.15 K, 60000 kPa | – | – | – | – | – | – | – | – | 828.3
323.15 K, 100 kPa | 750.6 | 752.8 | 755.6 | 758.9 | 762.6 | 766.6 | 771.1 | 775.7 | 780.7
323.15 K, 1000 kPa | 751.6 | 753.8 | 756.6 | 759.9 | 763.5 | 767.5 | 771.9 | 776.6 | 781.6
323.15 K, 2000 kPa | 752.6 | 754.8 | 757.6 | 760.8 | 764.5 | 768.5 | 772.9 | 777.5 | 782.5
323.15 K, 5000 kPa | 755.6 | 757.8 | 760.5 | 763.7 | 767.3 | 771.3 | 775.6 | 780.1 | 785.1
323.15 K, 10000 kPa | 760.3 | 762.5 | 765.2 | 768.3 | 771.8 | 775.7 | 779.9 | 784.4 | 789.2
323.15 K, 15000 kPa | 764.8 | 766.9 | 769.6 | 772.7 | 776.1 | 779.9 | 783.9 | 788.3 | 793.1
323.15 K, 20000 kPa | 769 | 771.1 | 773.7 | 776.7 | 780.1 | 783.8 | 787.9 | 792.2 | 796.8
323.15 K, 30000 kPa | 776.9 | 779 | 781.6 | 784.4 | 787.7 | 791.2 | 795.2 | 799.3 | 803.9
323.15 K, 40000 kPa | 784.2 | 786.1 | 788.6 | 791.4 | 794.6 | 798.1 | 801.8 | 805.9 | 810.3
323.15 K, 50000 kPa | 790.8 | 792.8 | 795.1 | 797.9 | 801 | 804.4 | 808 | 812 | 816.3
323.15 K, 60000 kPa | 797.2 | 799 | 801.4 | 804.1 | 807 | 810.5 | 814 | 817.9 | 822.1
323.15 K, 70000 kPa | 802.9 | 804.6 | 806.9 | 809.6 | 812.6 | 815.8 | 819.3 | 823.2 | 827.3
323.15 K, 80000 kPa | 808.6 | 810.1 | 812.3 | 815 | 817.9 | 821.1 | 824.5 | 828.3 | 832.3
333.15 K, 100 kPa | 740.7 | 743 | 745.9 | 749.4 | 753.1 | 757.4 | 762.1 | 767 | –

323.15 K
Settings | viscosity [mPa·s]
x2 = 0 | 0.593
x2 = 0.1073 | 0.596
x2 = 0.1991 | 0.613
x2 = 0.2998 | 0.659
x2 = 0.4006 | 0.704
x2 = 0.4997 | 0.776
x2 = 0.6001 | 0.868
x2 = 0.7001 | 0.99
x2 = 0.7997 | 1.106
x2 = 0.8996 | 1.255
